Measurements published in patent US20100189786A1, “CRYSTALLINE TOLTERODINE TARTARATE AND A PHARMACEUTICAL COMPOSITION CONTAINING THE SAME” (priority 2006, published 2010).

Experiment: Measurement of particle size by the microscopic method
Format: physicochemical
Conditions: no treatment; for weight of the material that would pass through the 250 μm sieve: share by weight; for particles smaller than 30 μm: share of all particles
Method: The drawings represent results of measurement of the particle size of the product prepared according to Example 2 by a microscopic method.
For all the batches, measurement of particle size was performed without any treatment using the microscopic method.

SMILES: Cc1ccc(O)c([C@H](CCN(C(C)C)C(C)C)c2ccccc2)c1.O=C(O)C(O)C(O)C(=O)O [Batch II, R-tolterodine tartarate]
- maximum crystal size: 439 μm
- maximum crystal size (listed as batch II): 439 μm
- weight of the material that would pass through the 250 μm sieve: 47.2%
- weight of the material that would pass through the 250 μm sieve (listed as batch II): 47.2%
- particles smaller than 30 μm: 94.73%
- particles smaller than 30 μm (listed as batch II): 94.73%

SMILES: Cc1ccc(O)c([C@H](CCN(C(C)C)C(C)C)c2ccccc2)c1.O=C(O)C(O)C(O)C(=O)O [Batch III, R-tolterodine tartarate]
- maximum crystal size: 702 μm
- maximum crystal size (listed as batch III): 702 μm
- weight of the material that would pass through the 250 μm sieve: 41.3%
- weight of the material that would pass through the 250 μm sieve (listed as batch III): 41.3%
- particles smaller than 30 μm: 89.29%
- particles smaller than 30 μm (listed as batch III): 89.29%

SMILES: Cc1ccc(O)c([C@H](CCN(C(C)C)C(C)C)c2ccccc2)c1.O=C(O)C(O)C(O)C(=O)O [Batch I, R-tolterodine tartarate]
- maximum crystal size: 623 μm
- maximum crystal size (listed as batch I): 623 μm
- weight of the material that would pass through the 250 μm sieve: 40.9%
- weight of the material that would pass through the 250 μm sieve (listed as batch I): 40.9%
- particles smaller than 30 μm: 91.95%
- particles smaller than 30 μm (listed as batch I): 91.95%
